Reference: ChEMBL document CHEMBL1148415, “Effects of C2-alkylation, N-alkylation, and N,N'-dialkylation on the stability and estrogen receptor interaction of (4R,5S)/(4S,5R)-4,5-bis(4-hydroxyphenyl)-2-imidazolines” (J Med Chem, 2004)

Legend:
[1] = Half life at 7.4 pH; type: ADME; settings: pH 7.4
[2] = Rate constant at 7.4 pH; type: ADME; settings: pH 7.4
Estrogen receptor = biological target: T1, Estrogen receptor (Homo sapiens, UniProt P03372); experiment: Concentration required to activate luciferase expression in MCF-7-2a cells; type: functional, cell-based
T1 sequence (P03372 whole entry): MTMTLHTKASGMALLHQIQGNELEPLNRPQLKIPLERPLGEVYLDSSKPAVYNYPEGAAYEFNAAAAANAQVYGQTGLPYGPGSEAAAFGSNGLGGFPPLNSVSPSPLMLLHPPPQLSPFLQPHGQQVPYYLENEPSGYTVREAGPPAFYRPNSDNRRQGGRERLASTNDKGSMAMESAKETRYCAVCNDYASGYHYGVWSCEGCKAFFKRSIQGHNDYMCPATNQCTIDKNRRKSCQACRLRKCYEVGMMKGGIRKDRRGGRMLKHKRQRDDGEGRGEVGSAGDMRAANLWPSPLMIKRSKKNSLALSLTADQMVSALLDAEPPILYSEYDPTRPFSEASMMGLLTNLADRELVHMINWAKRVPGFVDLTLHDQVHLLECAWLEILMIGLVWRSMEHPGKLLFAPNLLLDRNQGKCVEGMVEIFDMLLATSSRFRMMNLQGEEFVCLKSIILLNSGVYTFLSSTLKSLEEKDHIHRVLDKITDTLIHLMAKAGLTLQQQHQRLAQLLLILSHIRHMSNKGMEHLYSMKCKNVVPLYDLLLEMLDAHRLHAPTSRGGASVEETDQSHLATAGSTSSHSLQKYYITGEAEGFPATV

[3] = Half life at 7.4 pH; No decomposition was observed within 55h; type: ADME; settings: pH 7.4, 55 h
[4] = Rate constant at 7.4 pH; No decomposition was observed within 55h; type: ADME; settings: pH 7.4, 55 h

Structure (SMILES) | half-life [1] [h] | k obs [2] [h⁻¹] | EC50 (Estrogen receptor) [nM] | T1/2 [3] | k obs [4]
Oc1ccc([C@H]2NC=N[C@H]2c2ccc(O)cc2Cl)c(Cl)c1 | 5.94 | 0.15 |  |  | 
CCCN1C=N[C@@H](c2ccc(O)cc2Cl)[C@H]1c1ccc(O)cc1Cl |  |  | 150 |  | 
N[C@H](c1ccc(O)cc1Cl)[C@@H](N)c1ccc(O)cc1Cl |  |  | 1500 |  | 
CCN1C=N[C@@H](c2ccc(O)cc2Cl)[C@H]1c1ccc(O)cc1Cl | 154 | 0.004 | 15 |  | 
COc1ccc([C@H]2N=CN[C@H]2c2ccc(OC)cc2Cl)c(Cl)c1 | 4.58 | 0.198 |  |  | 
Oc1ccc([C@H]2N=CN[C@H]2c2ccc(O)cc2)cc1 | 6.36 | 0.122 |  |  | 
OCCC1=N[C@H](c2ccc(O)cc2Cl)[C@H](c2ccc(O)cc2Cl)N1 |  |  |  | Stable | Stable
N[C@H](c1ccc(O)cc1Cl)[C@@H](NC=O)c1ccc(O)cc1Cl |  |  | 3000 |  | 
CCN1C=[N+](CC)[C@@H](c2ccc(O)cc2Cl)[C@H]1c1ccc(O)cc1Cl |  |  | 500 | Stable | Stable
CN1C=[N+](C)[C@@H](c2ccc(O)cc2Cl)[C@H]1c1ccc(O)cc1Cl |  |  | 780 |  | 
CC1=N[C@@H](c2c(Cl)cc(O)cc2Cl)[C@@H](c2ccc(O)cc2Cl)N1 |  |  | 5000 |  | 
CN1C=N[C@@H](c2ccc(O)cc2Cl)[C@H]1c1ccc(O)cc1Cl |  |  | 300 |  | 
Oc1ccc([C@H]2N=CN[C@H]2c2c(Cl)cc(O)cc2Cl)c(Cl)c1 | 13.4 | 0.052 | 65 |  | 
